Reference: PubChem BioAssay (NCI)
“And” between values parts separate entries of the source, which are not always exact repeats. Identical values can stand only once.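 Results reflect a 48-hour exposure of cells in 96-well plates to compound at five concentrations. Here, GI50 denotes the concentration required for 50% inhibition of growth. TGI is the concentration that stops growth completely.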

Tests used:
Assay in all cases: DTP human tumour cell line panel, 48 h
UACC-62 melanoma = system: UACC-62 melanoma
SNB-19 CNS = system: SNB-19 CNS
SK-OV-3 ovarian = system: SK-OV-3 ovarian
LXFL 529 NSCLC = system: LXFL 529 NSCLC
NCI-H460 lung = system: NCI-H460 lung
NCI-H23 lung = system: NCI-H23 lung
HS 578T breast = system: HS 578T breast
T-47D breast = system: T-47D breast
IGROV1 ovarian = system: IGROV1 ovarian
DLD-1 colon = system: DLD-1 colon

CC(=O)OCC(OC(C)=O)C(OC(C)=O)C(OC(C)=O)C(=O)CNn1c(-c2ccccc2Cl)nc2ccc(Br)cc2c1=O (stereo unspecified)
TGI (UACC-62 melanoma): > 100 µM
TGI (SNB-19 CNS): > 100 µM
TGI (SK-OV-3 ovarian): > 100 µM
TGI (LXFL 529 NSCLC): > 100 µM
TGI (NCI-H460 lung): > 100 µM
TGI (NCI-H23 lung): > 100 µM

O=c1oc2cc(OS(=O)(=O)c3ccccc3)ccc2c2c1CCCCC2
GI50 (UACC-62 melanoma): 4.73 µM
TGI (UACC-62 melanoma): > 100 µM
GI50 (SNB-19 CNS): > 100 µM
TGI (SNB-19 CNS): > 100 µM
GI50 (HS 578T breast): > 100 µM
TGI (HS 578T breast): > 100 µM
GI50 (SK-OV-3 ovarian): > 100 µM
TGI (SK-OV-3 ovarian): > 100 µM
GI50 (T-47D breast): 3.79 µM
TGI (T-47D breast): > 100 µM
GI50 (NCI-H460 lung): 4.27 µM
TGI (NCI-H460 lung): > 100 µM
GI50 (IGROV1 ovarian): > 100 µM
TGI (IGROV1 ovarian): > 100 µM
GI50 (NCI-H23 lung): 7.27 µM
TGI (NCI-H23 lung): > 100 µM

N#C/C(=C\c1cccnc1)c1nc2ccccc2o1
GI50 (UACC-62 melanoma): > 100 µM
TGI (UACC-62 melanoma): > 100 µM
GI50 (SNB-19 CNS): > 100 µM
TGI (SNB-19 CNS): > 100 µM
GI50 (HS 578T breast): > 100 µM
TGI (HS 578T breast): > 100 µM
GI50 (SK-OV-3 ovarian): > 100 µM
TGI (SK-OV-3 ovarian): > 100 µM
GI50 (T-47D breast): > 100 µM
TGI (T-47D breast): > 100 µM
GI50 (NCI-H460 lung): > 100 µM
TGI (NCI-H460 lung): > 100 µM
GI50 (IGROV1 ovarian): > 100 µM
TGI (IGROV1 ovarian): > 100 µM
GI50 (NCI-H23 lung): > 100 µM
TGI (NCI-H23 lung): > 100 µM

O=C1NC(O)CCN1C1CC(O)C(CO)O1 (stereo unspecified)
TGI (UACC-62 melanoma): > 100 µM
TGI (SNB-19 CNS): > 100 µM
TGI (HS 578T breast): > 100 µM
TGI (SK-OV-3 ovarian): > 100 µM
TGI (T-47D breast): > 100 µM
TGI (NCI-H460 lung): > 100 µM
TGI (IGROV1 ovarian): > 100 µM
TGI (NCI-H23 lung): > 100 µM

O=S1(=O)CC(Br)C(Br)C1 (stereo unspecified)
GI50 (UACC-62 melanoma): 5.39 µM
TGI (UACC-62 melanoma): 18.7 µM
GI50 (SNB-19 CNS): 29.4 µM
TGI (SNB-19 CNS): > 100 µM
GI50 (HS 578T breast): 5.5 µM
TGI (HS 578T breast): 76.3 µM
GI50 (SK-OV-3 ovarian): 23.2 µM
TGI (SK-OV-3 ovarian): 90 µM
GI50 (T-47D breast): 3.16 µM
TGI (T-47D breast): 13.6 µM
GI50 (NCI-H460 lung): 20.4 µM
TGI (NCI-H460 lung): 61.8 µM
GI50 (IGROV1 ovarian): 10.6 µM
TGI (IGROV1 ovarian): 28.6 µM
GI50 (NCI-H23 lung): 7.88 µM
TGI (NCI-H23 lung): 26 µM

S=C(Nc1ccccc1)N1CCn2c1nsc2=Nc1ccccc1
GI50 (UACC-62 melanoma): 45.9 µM
TGI (UACC-62 melanoma): > 100 µM
GI50 (SNB-19 CNS): > 100 µM
TGI (SNB-19 CNS): > 100 µM
GI50 (HS 578T breast): 53.4 µM
TGI (HS 578T breast): > 100 µM
GI50 (SK-OV-3 ovarian): > 100 µM
TGI (SK-OV-3 ovarian): > 100 µM
GI50 (T-47D breast): > 100 µM
TGI (T-47D breast): > 100 µM
GI50 (NCI-H460 lung): > 100 µM
TGI (NCI-H460 lung): > 100 µM
GI50 (IGROV1 ovarian): 50.2 µM
TGI (IGROV1 ovarian): > 100 µM
GI50 (NCI-H23 lung): 41.1 µM
TGI (NCI-H23 lung): > 100 µM

COc1cc(/C=C\c2cc(OC)c(OC)c(OC)c2)cc(NS(=O)(=O)c2cccc(Cl)c2)c1OC
GI50 (UACC-62 melanoma): 0.0568 µM
TGI (UACC-62 melanoma): > 100 µM
GI50 (SNB-19 CNS): 0.214 µM
TGI (SNB-19 CNS): > 100 µM
GI50 (HS 578T breast): 0.0795 µM
TGI (HS 578T breast): > 100 µM
GI50 (SK-OV-3 ovarian): 1.15 µM
TGI (SK-OV-3 ovarian): > 100 µM
GI50 (T-47D breast): 39.5 µM
TGI (T-47D breast): > 100 µM
GI50 (NCI-H460 lung): 0.0362 µM
TGI (NCI-H460 lung): > 100 µM
GI50 (IGROV1 ovarian): 0.0887 µM
TGI (IGROV1 ovarian): > 100 µM
GI50 (NCI-H23 lung): 0.386 µM
TGI (NCI-H23 lung): > 100 µM

CCC1OC(/C(C)=C/C(C)/C=C/C2C(C)C2/C=C/C2OC(CC(=O)O)CC(O)C2O)CC=C1C (stereo unspecified)
GI50 (UACC-62 melanoma): > 50 µM
TGI (UACC-62 melanoma): > 50 µM
GI50 (SNB-19 CNS): > 50 µM
TGI (SNB-19 CNS): > 50 µM
GI50 (HS 578T breast): > 50 µM
TGI (HS 578T breast): > 50 µM
GI50 (SK-OV-3 ovarian): > 50 µM
TGI (SK-OV-3 ovarian): > 50 µM
GI50 (T-47D breast): > 50 µM
TGI (T-47D breast): > 50 µM
GI50 (NCI-H460 lung): > 50 µM
TGI (NCI-H460 lung): > 50 µM
GI50 (IGROV1 ovarian): > 50 µM
TGI (IGROV1 ovarian): > 50 µM
GI50 (NCI-H23 lung): > 50 µM
TGI (NCI-H23 lung): > 50 µM

CC(C)(O)CCC(O)C(C)(O)C1CCC2(O)C3=CC(=O)C4(O)CC(O)C(O)CC4(C)C3CCC12C (stereo unspecified) (tested in a mixture with another compound)
TGI (UACC-62 melanoma): > 100 µM
TGI (SNB-19 CNS): > 100 µM
TGI (HS 578T breast): > 100 µM
TGI (SK-OV-3 ovarian): > 100 µM
TGI (T-47D breast): > 100 µM
TGI (NCI-H460 lung): > 100 µM
TGI (IGROV1 ovarian): > 100 µM
TGI (NCI-H23 lung): > 100 µM

CC(C)(F)C[C@H](N[C@@H](c1ccc(-c2ccc(S(C)(=O)=O)cc2)cc1)C(F)(F)F)C(=O)NC1(C#N)CC1
GI50 (UACC-62 melanoma): 27.3 µM and 51.9 µM
TGI (UACC-62 melanoma): 55 µM and > 100 µM
GI50 (SNB-19 CNS): 16.6 µM and 18.3 µM
TGI (SNB-19 CNS): 55 µM and 62.2 µM
GI50 (HS 578T breast): 13.6 µM and 21.1 µM
TGI (HS 578T breast): 55 µM and 63.9 µM
GI50 (SK-OV-3 ovarian): 23 µM and 27.5 µM
TGI (SK-OV-3 ovarian): 55 µM and 70.7 µM
GI50 (T-47D breast): 35.7 µM and 99.7 µM
TGI (T-47D breast): 55 µM and > 100 µM
GI50 (NCI-H460 lung): 33.6 µM and 49.7 µM
TGI (NCI-H460 lung): 55 µM and > 100 µM
GI50 (IGROV1 ovarian): 33.2 µM and 30.2 µM
TGI (IGROV1 ovarian): 55 µM and 91.2 µM
GI50 (NCI-H23 lung): 28.5 µM and 39.9 µM
TGI (NCI-H23 lung): 55 µM and > 100 µM

S=c1[nH]nc(SCc2ccccc2Cl)c2[nH]cnc12
TGI (UACC-62 melanoma): > 100 µM
TGI (SNB-19 CNS): > 100 µM
TGI (HS 578T breast): > 100 µM
TGI (SK-OV-3 ovarian): > 100 µM
TGI (T-47D breast): > 100 µM
TGI (NCI-H460 lung): > 100 µM
TGI (IGROV1 ovarian): > 100 µM
TGI (NCI-H23 lung): > 100 µM

C#CCOc1cccc(Nc2ncc3ncn(C4CCN(C(=O)CCl)C4)c3n2)c1 (stereo unspecified)
GI50 (UACC-62 melanoma): > 62.5 µM
TGI (UACC-62 melanoma): > 62.5 µM
GI50 (SNB-19 CNS): > 62.5 µM
TGI (SNB-19 CNS): > 62.5 µM
GI50 (HS 578T breast): > 62.5 µM
TGI (HS 578T breast): > 62.5 µM
GI50 (SK-OV-3 ovarian): > 62.5 µM
TGI (SK-OV-3 ovarian): > 62.5 µM
GI50 (T-47D breast): > 62.5 µM
TGI (T-47D breast): > 62.5 µM
GI50 (NCI-H460 lung): > 62.5 µM
TGI (NCI-H460 lung): > 62.5 µM
GI50 (IGROV1 ovarian): 6.79 µM
TGI (IGROV1 ovarian): > 62.5 µM
GI50 (NCI-H23 lung): > 62.5 µM
TGI (NCI-H23 lung): > 62.5 µM

O=C(O)c1ccc2cccnc2c1O
GI50 (UACC-62 melanoma): 1.54 µM
TGI (UACC-62 melanoma): 9.64 µM
GI50 (SNB-19 CNS): 1.48 µM
TGI (SNB-19 CNS): > 100 µM
GI50 (HS 578T breast): 0.724 µM
TGI (HS 578T breast): > 79.8 µM
GI50 (SK-OV-3 ovarian): 1.7 µM
TGI (SK-OV-3 ovarian): 4.89 µM
GI50 (T-47D breast): 2.18 µM
TGI (T-47D breast): 9.9 µM
GI50 (NCI-H460 lung): 0.551 µM
TGI (NCI-H460 lung): 11.1 µM
GI50 (IGROV1 ovarian): 1.38 µM
TGI (IGROV1 ovarian): 25.8 µM
GI50 (NCI-H23 lung): 1.05 µM
TGI (NCI-H23 lung): 29.1 µM

Cc1cccc(O)c(=O)c1
TGI (UACC-62 melanoma): > 100 µM
TGI (SNB-19 CNS): > 100 µM
TGI (SK-OV-3 ovarian): > 100 µM
TGI (LXFL 529 NSCLC): > 100 µM
TGI (NCI-H460 lung): > 100 µM
TGI (IGROV1 ovarian): > 100 µM
TGI (DLD-1 colon): > 100 µM

O=C(Nc1ccccc1C(=O)Nc1nccs1)c1ccccc1
TGI (UACC-62 melanoma): > 100 µM
TGI (SNB-19 CNS): > 100 µM
TGI (HS 578T breast): > 100 µM
TGI (SK-OV-3 ovarian): > 100 µM
TGI (T-47D breast): 56.4 µM
TGI (NCI-H460 lung): > 100 µM
TGI (IGROV1 ovarian): > 100 µM
TGI (NCI-H23 lung): > 100 µM

Cc1[nH]n(-c2ccccc2)c(=O)c1C(=O)c1ccccc1
GI50 (UACC-62 melanoma): > 25 µM
TGI (UACC-62 melanoma): > 25 µM
GI50 (SNB-19 CNS): > 15.7 µM
TGI (SNB-19 CNS): > 25 µM
GI50 (HS 578T breast): > 25 µM
TGI (HS 578T breast): > 25 µM
GI50 (SK-OV-3 ovarian): > 25 µM
TGI (SK-OV-3 ovarian): > 25 µM
GI50 (T-47D breast): > 25 µM
TGI (T-47D breast): > 25 µM
GI50 (NCI-H460 lung): > 19.5 µM
TGI (NCI-H460 lung): > 25 µM
GI50 (IGROV1 ovarian): > 15.4 µM
TGI (IGROV1 ovarian): > 25 µM
GI50 (NCI-H23 lung): > 25 µM
TGI (NCI-H23 lung): > 25 µM

O=c1[nH]cnc2nc(-c3ccc(N(CCCl)CCCl)cc3)[nH]c12
GI50 (UACC-62 melanoma): 0.507 µM
TGI (UACC-62 melanoma): 71.6 µM
GI50 (SNB-19 CNS): 19.3 µM
TGI (SNB-19 CNS): > 100 µM
GI50 (HS 578T breast): 27.2 µM
TGI (HS 578T breast): > 100 µM
GI50 (SK-OV-3 ovarian): 5.17 µM
TGI (SK-OV-3 ovarian): 42.8 µM
GI50 (T-47D breast): 2.85 µM
TGI (T-47D breast): > 100 µM
GI50 (NCI-H460 lung): 4.51 µM
TGI (NCI-H460 lung): > 100 µM
GI50 (IGROV1 ovarian): 26.9 µM
TGI (IGROV1 ovarian): > 100 µM
GI50 (NCI-H23 lung): 31.7 µM
TGI (NCI-H23 lung): > 100 µM
